BindingDB's records for doi:10.1016/s0014-2999(02)02124-6 (Schering-Plough Research Institute, 2002)

Legend:
Substance-P receptor = Substance-P receptor (Homo sapiens, UniProt P25103)
Neuromedin-K receptor = target: T1, Neuromedin-K receptor (Homo sapiens, UniProt P29371)
T1 sequence (P29371 whole entry): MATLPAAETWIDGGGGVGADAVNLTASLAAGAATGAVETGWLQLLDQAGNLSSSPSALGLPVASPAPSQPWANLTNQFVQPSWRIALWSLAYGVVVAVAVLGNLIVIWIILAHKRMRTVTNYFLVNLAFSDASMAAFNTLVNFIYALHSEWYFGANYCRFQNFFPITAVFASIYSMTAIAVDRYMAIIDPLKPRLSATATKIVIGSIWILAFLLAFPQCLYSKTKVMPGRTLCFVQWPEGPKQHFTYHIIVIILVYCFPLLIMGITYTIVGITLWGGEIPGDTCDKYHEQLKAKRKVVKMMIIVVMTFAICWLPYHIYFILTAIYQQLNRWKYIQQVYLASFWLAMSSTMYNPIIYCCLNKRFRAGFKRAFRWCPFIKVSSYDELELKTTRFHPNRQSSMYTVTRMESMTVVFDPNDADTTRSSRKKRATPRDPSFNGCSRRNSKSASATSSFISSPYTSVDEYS

Substance-K receptor = target: T2, Substance-K receptor (Homo sapiens, UniProt P21452)
T2 sequence (P21452 whole entry): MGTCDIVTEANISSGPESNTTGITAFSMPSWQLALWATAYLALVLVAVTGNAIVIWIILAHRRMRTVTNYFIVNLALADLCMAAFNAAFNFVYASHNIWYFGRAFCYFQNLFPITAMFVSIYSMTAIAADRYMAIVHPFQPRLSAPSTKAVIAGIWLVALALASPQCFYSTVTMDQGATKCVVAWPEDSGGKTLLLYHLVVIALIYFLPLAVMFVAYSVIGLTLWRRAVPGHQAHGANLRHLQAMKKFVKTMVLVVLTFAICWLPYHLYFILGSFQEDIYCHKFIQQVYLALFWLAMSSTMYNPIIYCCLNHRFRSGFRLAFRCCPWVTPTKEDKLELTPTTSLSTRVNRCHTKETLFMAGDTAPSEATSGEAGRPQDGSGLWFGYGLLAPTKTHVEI

Substance-P receptor, sequence (P25103 whole entry): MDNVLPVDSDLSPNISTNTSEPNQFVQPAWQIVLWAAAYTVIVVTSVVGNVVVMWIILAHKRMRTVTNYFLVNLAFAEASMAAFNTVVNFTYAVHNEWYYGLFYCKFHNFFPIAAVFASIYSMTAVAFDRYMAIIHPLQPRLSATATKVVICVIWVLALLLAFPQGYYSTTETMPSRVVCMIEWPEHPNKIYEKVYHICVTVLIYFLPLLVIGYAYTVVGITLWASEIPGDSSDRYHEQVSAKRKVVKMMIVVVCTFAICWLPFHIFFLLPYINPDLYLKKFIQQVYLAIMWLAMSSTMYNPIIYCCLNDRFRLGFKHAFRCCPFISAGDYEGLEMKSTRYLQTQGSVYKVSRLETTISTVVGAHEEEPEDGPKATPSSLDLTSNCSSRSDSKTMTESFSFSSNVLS

| Ki (Substance-P receptor) [nM] | Ki (Neuromedin-K receptor) [nM] | Ki (Substance-K receptor) [nM] | Structure (SMILES) |
| --- | --- | --- | --- |
| 273 | 1280 | 0.4 | CC(=O)NC1(c2ccccc2)CCN(CCC(CN(C)C(=O)c2ccccc2)c2ccc(Cl)c(Cl)c2)CC1 (stereo not drawn) [SR 48968] |
| – | > 10000 | > 10000 | COc1ccccc1CN[C@H]1CCCN[C@H]1c1ccccc1 [(+/-)(2-Methoxy-benzyl)-(2-phenyl-piperidin-3-yl)-amine] |
| 1.3 | 0.3 | 0.4 | CNC(=O)CC1CCCN(C2CCN(CC[C@@H](/C(CN(C)C(=O)c3cc(Cl)cc(Cl)c3)=N/OC)c3ccc(Cl)c(Cl)c3)CC2)C1=O (stereo partly drawn) |
